{"source": "patent US9808505B2", "about": "“Suppression of malignant mesothelioma by overexpression or stimulation of endothelial protein C receptors (EPCR)” (BOARD OF REGENTS, THE UNIVERSITY OF TEXAS SYSTEM, priority 2013, dated 2017)", "molecules": {"B1": {"name": "FVIIa: Recombinant human FVIIa from Novo Nordisk; clotting factor that initiates coagulation upon binding to TF (protein)", "chain": "ANAFLEELRPGSLERECKEEQCSFEEAREIFKDAERTKLFWISYSDGDQCASSPCQNGGSCKDQLQSYICFCLPAFEGRNCETHKDDQLICVNENGGCEQYCSDHTGTKRSCRCHEGYSLLADGVSCTPTVEYPCGKIPILEKRNASKPQGRIVGGKVCPKGECPWQVLLLVNGAQLCGGTLINTIWVVSAAHCFDKIKNWRNLIAVLGEHDLSEHDGDEQSRRVAQVIIPSTYVPGTTNHDIALLRLHQPVVLTDHVVPLCLPERTFSERTLAFVRFSLVSGWGQLLDRGATALELMVLNVPRLMTQDCLQQSRKVGDSPNITEYMFCAGYSDGSKDSCKGDSGGPHATHYRGTWYLTGIVSWGQGCATVGHFGVYTRVSQYIEWLQKLMRSEPRPGVLLRAPFP"}}, "format_in_all_cases": "cell-based, human", "key": {"[1]": {"system": "REN MPM cells", "assay": "Cell proliferation assay (BrdU incorporation) in MPM cells", "settings": "for difference in cell proliferation between REN and REN(+EPCR): in vitro, presence or absence of ligand, FVIIa 10 nM, APC 20 nM, thrombin 10 nM, 24 h; for cell proliferation of REN cells in response to ligand (in words): wild-type REN cells in vitro, 10 nM ligand in SFM, 24 h (FIG. 8)", "procedure": "Cell proliferation assay in MPM cells in the presence or absence of various ligands was performed using Apo-BrdU cell proliferation assay kit from Millipore (Temecula, Calif.) following the manufacturer's instructions. Briefly, MPM cells (7,500 cells/well) were seeded in 96-well plates in RPMI medium containing 10% FBS, and after 24 h the cells were washed once and maintained in serum-free medium (SFM). After 24 h, the cells were washed once with SFM and incubated with SFM or SFM containing FVIIa, APC, thrombin or serum (1%) for 24 h. Twenty μl of BrdU-labeling solution was added to each well 8 h prior to the completion of 24 h incubation with the test compound. The cells were fixed and processed for detection of BrdU incorporation by incubating the cells with an anti-BrdU antibody, followed by peroxidase-conjugated secondary antibody and then the substrate tetramethyl-benzidine with three washings in between each step. The color developed in the assay was measured as absorbance at 450 nm using the absorbance measured at 650 nm as a reference value in a microplate reader (Molecular Devices, Sunnyvale, Calif.)."}, "[2]": {"system": "REN MPM cells", "assay": "Measurement of cytosolic Ca2+ release (Fluo-4 fluorescence microscopy)", "settings": "peptide 50 μM (FIG. 1E)", "procedure": "Fluorescence microscopy was used for measurement of cytosolic Ca^2+ release as described earlier (34). MPM cells were seeded in 8-well chambered cover slips (Nunc, Rochester, N.Y.) at a density of 10,000 cells/well. After 24 h, cells were washed and incubated with 4 μM Fluo-4/AM Ester (Molecular Probes, Inc, Eugene, Oreg.) for 1 h in buffer B in a humidified atmosphere of 37° C./5% CO2. The cells were then washed with buffer B, and a chambered cover slip was placed on the stage of an inverted microscope (Axio Observer Z1) encased in an incubation chamber that maintained 37° C./5% CO2. Live images of cell fluorescence were recorded by exciting the Fluo-4 probe with 488 nm light and monitoring 530 nm emission using Carl Zeiss LSM 510 Meta Confocal Laser Scanning system. After 15 sec of image acquisition, PAR1 agonist peptide […]; SEQ ID NO:10)) or PAR2 agonist peptide (SLIGRL; (SEQ ID NO:11)) was added to the cells at a final concentration of 50 μM and the recording was continued for an additional 165 sec. Results are represented as change in fluorescence intensity over time."}, "[3]": {"system": "REN MPM cells", "assay": "Elaboration of proangiogenic factors on exposure to FVIIa", "settings": "REN MPM cells in response to FVIIa", "procedure": "To assess whether TF promotes tumor growth in MPM through elaboration of proangiogenic factors by direct signaling (as observed in breast cancer cells (38, 39)), studies were conducted here to examine whether exposure of REN MPM cells to FVIIa increased production of proangiogenic factors in these cells. […] Thus, it seems unlikely that TF-FVIIa-PAR1-mediated cell signaling promotes MPM tumor growth through elaboration of proangiogenic factors as previously speculated for promotion of tumor growth in breast cancer (21)."}}, "data": [{"molecule": "thrombin", "values": [{"measurement": "thrombin-induced cell proliferation in PAR1 knock-down cells", "setting": "[1]; REN cells with PAR1 knock-down (REN-P1KD)", "result": "diminished"}, {"measurement": "difference in cell proliferation between REN and REN(+EPCR)", "setting": "[1]", "result": "no measurable differences"}, {"measurement": "cell proliferation of REN cells in response to ligand (in words)", "setting": "[1]", "result": "modest increase"}]}, {"molecule": "SLIGRL [PAR2 agonist peptide]", "values": [{"measurement": "intracellular Ca2+ release", "setting": "[2]", "result": "not"}]}, {"molecule": "TFLLRNPNDK [PAR1 agonist peptide]", "values": [{"measurement": "intracellular Ca2+ release", "setting": "[2]", "result": "induced intracellular Ca^2+ release"}]}, {"molecule": "B1", "values": [{"measurement": "FVIIa-induced increase in cell proliferation in TF knock-down cells", "setting": "[1]; REN cells with TF knock-down (REN-TFKD)", "result": "abrogated"}, {"measurement": "difference in cell proliferation between REN and REN(+EPCR)", "setting": "[1]", "result": "no measurable differences"}, {"measurement": "increase in rate of cell proliferation", "setting": "[1]; naïve REN MPM cells, addition of FVIIa", "result": "about 70%"}, {"measurement": "cell proliferation of REN cells in response to ligand (in words)", "setting": "[1]", "result": "modestly but consistently"}, {"measurement": "elaboration of proangiogenic factors, including IL-8, CCN1 and CCN2", "setting": "[3]", "result": "robust or reproducible elaboration"}]}]}
